# Test results: US20090069320A1, “Substituted 4-Amino-Quinazoline Compounds with Metabotropic Glutamate Receptor Regulating Activity and Uses Thereof” (Gruenenthal GmbH, priority 2006, published 2009)
# Structures can show the parent of a compound that is named as a salt.
# Target: T1, mGluR5 receptor (Sus scrofa, UniProt I3LUI7)
# T1 construct: 450 μg of protein from brain homogenate with 5 nM ^3[H]-MPEP; from tissue; host or cells: pig brain halves without medulla, cerebellum and pons
# Experiment: [3H]-MPEP mGluR5 receptor binding assay (pig brain homogenate)
# Settings: 5 nM [3H]-MPEP, read-out: IC50 mGluR5 Receptor (pig) [^3H]-MPEP Bond
# Summary of the method: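 Radioligand displacement of 5 nM [3H]-MPEP from pig brain homogenate (450 μg protein; medulla, cerebellum and pons removed) in 20 mM Hepes pH 8.0. Compounds were tested at 10 μM, incubated 60 min at room temperature, then filtered and counted by scintillation. Non-specific binding was defined with 10 μM MPEP.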
# T1 sequence (I3LUI7 19-1212): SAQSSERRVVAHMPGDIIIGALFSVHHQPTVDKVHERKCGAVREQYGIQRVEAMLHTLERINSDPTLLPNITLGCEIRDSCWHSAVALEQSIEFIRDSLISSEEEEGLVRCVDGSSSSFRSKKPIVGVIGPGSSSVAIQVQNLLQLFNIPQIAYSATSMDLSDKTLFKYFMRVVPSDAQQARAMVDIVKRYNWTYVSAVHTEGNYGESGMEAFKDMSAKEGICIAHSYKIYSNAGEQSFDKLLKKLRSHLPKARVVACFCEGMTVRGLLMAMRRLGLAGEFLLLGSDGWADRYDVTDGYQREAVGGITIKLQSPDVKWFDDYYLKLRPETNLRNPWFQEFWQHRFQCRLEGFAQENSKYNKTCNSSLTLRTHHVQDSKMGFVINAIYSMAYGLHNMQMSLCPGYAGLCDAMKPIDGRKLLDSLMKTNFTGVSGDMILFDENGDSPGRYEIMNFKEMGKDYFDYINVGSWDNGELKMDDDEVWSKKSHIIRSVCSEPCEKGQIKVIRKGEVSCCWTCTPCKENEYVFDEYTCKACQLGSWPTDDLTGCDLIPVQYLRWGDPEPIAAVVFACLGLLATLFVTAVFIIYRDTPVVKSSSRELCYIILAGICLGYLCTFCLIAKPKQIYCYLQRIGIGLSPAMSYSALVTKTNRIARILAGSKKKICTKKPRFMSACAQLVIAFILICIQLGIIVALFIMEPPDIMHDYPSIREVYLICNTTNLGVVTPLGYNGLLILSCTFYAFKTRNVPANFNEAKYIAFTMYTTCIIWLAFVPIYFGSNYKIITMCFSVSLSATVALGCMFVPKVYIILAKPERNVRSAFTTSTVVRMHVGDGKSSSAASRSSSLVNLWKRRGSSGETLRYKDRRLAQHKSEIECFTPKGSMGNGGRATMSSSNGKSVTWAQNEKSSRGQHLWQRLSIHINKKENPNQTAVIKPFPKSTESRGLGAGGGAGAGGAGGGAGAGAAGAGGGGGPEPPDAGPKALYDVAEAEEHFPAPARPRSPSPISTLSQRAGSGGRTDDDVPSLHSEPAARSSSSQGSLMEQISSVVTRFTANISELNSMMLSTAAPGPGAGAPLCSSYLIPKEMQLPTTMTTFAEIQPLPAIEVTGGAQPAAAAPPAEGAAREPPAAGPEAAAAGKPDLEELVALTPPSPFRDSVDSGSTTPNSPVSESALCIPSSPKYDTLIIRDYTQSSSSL
row,IC50,SMILES
1,140 nM,"CC(=O)N(Cc1c(F)ccc(-c2ccc3ncnc(NC4CC4)c3c2)c1F)C1CC1 [Example 249, N-cyclopropyl-N-[3-(4-cyclopropylamino-quinazolin-6-yl)-2,6-difluoro-benzyl]-acetamide]"
2,4300 nM,"O=C1CCC(=O)N1Cc1cccc(-c2ccc3ncnc(N4CCCC4)c3c2)c1 [Example 880, 1-(3-(4-(pyrrolidin-1-yl)quinazolin-6-yl)benzyl)pyrrolidine-2,5-dione]"
3,660 nM,"N#CCC(=O)N(Cc1cccc(-c2ccc3ncnc(NC4CC4)c3c2)c1F)C1CC1 [Example 197, 2-cyano-N-cyclopropyl-N-[3-(4-cyclopropylamino-quinazolin-6-yl)-2-fluoro-benzyl]-acetamide]"

# Same assay, conditions: 10 μM compound, 5 nM [3H]-MPEP
row,SMILES,% Inhibition of mGluR5 Receptor (pig) [^3H]-MPEP Bond at 10 μM
1,"COc1ccc(S(=O)(=O)N(Cc2cccc(-c3cc(F)c4ncnc(NC5CC5)c4c3)c2)C2CC2)cc1 [Example 694, N-cyclopropyl-N-(3-(4-(cyclopropylamino)-8-fluoroquinazolin-6-yl)benzyl)-4-methoxybenzole sulfonamide]",82%
2,"CCCCC(=O)N(C)Cc1cc(-c2ccc3ncnc(NCc4ccccc4)c3c2)ccc1F [Example 549, N-(5-(4-(benzylamino)quinazolin-6-yl)-2-fluorobenzyl)-N-methyl pentanamide]",32%

# More lines, now with the values ahead:
row,% Inhibition of mGluR5 Receptor (pig) [^3H]-MPEP Bond at 10 μM,SMILES
1,90%,"CC(C)(C)Nc1ncnc2ccc(-c3ccc(F)c(CN(C(=O)c4ccco4)C4CC4)c3)cc12 [Example 807, N-(5-(4-(tert-butylamino)quinazolin-6-yl)-2-fluorobenzyl)-N-cyclopropyl furan-2-carboxamide]"
2,45%,"CC(C)(C)Nc1ncnc2ccc(-c3ccc(F)c(CN(C4CC4)S(=O)(=O)c4cccs4)c3)cc12 [Example 810, N-(5-(4-(tert-butylamino)quinazolin-6-yl)-2-fluorobenzyl)-N-cyclopropyl thiophene-2-sulfonamide]"

# Same assay, conditions: 10 μM compound, 5 nM [3H]-MPEP, read-out: % Inhibition of mGluR5 Receptor (pig) [^3H]-MPEP Bond at 10 μM
row,SMILES,inhibition at 10 µM
1,"Cc1nc(NC2CC2)c2cc(-c3ccc(F)c(CN(C(=O)c4ccc(C(F)(F)F)cc4F)C4CC4)c3)ccc2n1 [Example 532, N-cyclopropyl-N-(5-(4-(cyclopropylamino)-2-methylquinazolin-6-yl)-2-fluorobenzyl)-2-fluoro-4-(trifluoromethyl)benzamide]",61%
2,"O=C(c1cccnc1)N(Cc1cccc(-c2ccc3ncnc(NCCc4ccccc4)c3c2)c1)C1CC1 [Example 385, N-cyclopropyl-N-(3-(4-(phenethylamino)quinazolin-6-yl)benzyl)nicotinamide]",35%
3,"CCN(CC)c1ncnc2ccc(-c3cccc(CN(C)C(=O)c4cccc(C#N)c4)c3)cc12 [Example 69, 3-cyano-N-[3-(4-diethylamino-quinazolin-6-yl)-benzyl]-N-methyl-benzamide]",38%
4,"CC(C)Nc1ncnc2ccc(-c3cccc(CN(Cc4ccccc4)C(=O)c4ccsc4)c3)cc12 [Example 50, thiophene-3-carboxylic acid benzyl-[3-(4-isopropylamino-quinazolin-6-yl)-benzyl]-amide]",30%
5,"Cc1nc(NC2CC2)c2cc(-c3ccc(F)c(CN(C(=O)c4cccc(F)c4)C4CC4)c3)ccc2n1 [Example 566, N-cyclopropyl-N-(5-(4-(cyclopropylamino)-2-methylquinazolin-6-yl)-2-fluorobenzyl)-3-fluorobenzamide]",61%
6,"O=C(c1ccccc1C(F)(F)F)N(Cc1cc(-c2ccc3ncnc(NC4CC4)c3c2)ccc1F)C1CC1 [Example 413, N-cyclopropyl-N-(5-(4-(cyclopropylamino)quinazolin-6-yl)-2-fluorobenzyl)-2-(trifluoromethyl)benzamide]",89%
7,"O=C(C1CCCCC1)N(Cc1cc(-c2ccc3ncnc(NC4CC4)c3c2)ccc1F)C1CC1 [Example 452, N-cyclopropyl-N-(5-(4-(cyclopropylamino)quinazolin-6-yl)-2-fluorobenzyl)cyclohexane carboxamide]",71%
8,"Cc1nc(NC2CC2)c2cc(-c3ccc(F)c(CN(C(=O)c4csc(C)n4)C4CC4)c3)ccc2n1 [Example 624, N-cyclopropyl-N-(5-(4-(cyclopropylamino)-2-methylquinazolin-6-yl)-2-fluorobenzyl)-2-methylthiazole-4-carboxamide]",75%
9,"Cc1nc(NC2CC2)c2cc(-c3ccc(F)c(CN(C(=O)Cc4ccccc4)C4CC4)c3)ccc2n1 [Example 644, N-cyclopropyl-N-(5-(4-(cyclopropylamino)-2-methylquinazolin-6-yl)-2-fluorobenzyl)-2-phenylacetamide]",85%
10,"O=S1(=O)CCCN1Cc1cccc(-c2ccc3ncnc(NC4CC4)c3c2)c1 [Example 206, cyclopropyl-{6-[3-(1,1-dioxo-1λ^6-isothiazolidin-2-ylmethyl)-phenyl]-quinazoline-4-yl}-amine; hydrochloride]",34%
11,"O=C(c1ccc(Br)s1)N(Cc1cccc(-c2ccc3ncnc(NC4CC4)c3c2)c1)C1CC1 [Example 166, 5-bromo-thiophene-2-carboxylic acid cyclopropyl-[3-(4-cyclopropylamino-quinazolin-6-yl)-benzyl]-amide]",86%
12,"O=C(c1ccco1)N(Cc1cccc(-c2ccc3ncnc(NC4CC4)c3c2)c1)C1CC1 [Example 169, furan-2-carboxylic acid cyclopropyl-[3-(4-cyclopropylamino-quinazolin-6-yl)-benzyl]-amide]",91%
13,"Cc1ccc(C(=O)N(Cc2cccc(-c3ccc4ncnc(N5CCCC5)c4c3)c2)C2CC2)cc1 [Example 134, N-cyclopropyl-4-methyl-N-[3-(4-pyrrolidin-1-yl-quinazolin-6-yl)-benzyl]-benzamide]",58%
14,"CCCCNCc1cccc(-c2ccc3ncnc(NC4CC4)c3c2)c1 [Example 310, 6-(3-((butylamino)methyl)phenyl)-N-cyclopropylquinazoline-4-amine]",50%
15,"CNc1ncnc2ccc(-c3ccc(F)c(CN(C)C(=O)c4ccc(C(F)(F)F)cc4F)c3)cc12 [Example 593, 2-fluoro-N-(2-fluoro-5-(4-(methylamino)quinazolin-6-yl)benzyl)-N-methyl-4-(trifluoromethyl)benzamide]",52%
16,"CC(C)Nc1ncnc2ccc(-c3cccc(CN(Cc4ccccc4)C(=O)c4cccs4)c3)cc12 [Example 154, thiophene-2-carboxylic acid benzyl-[3-(4-isopropylamino-quinazolin-6-yl)-benzyl]-amide]",37%
17,"O=C(c1ccc(C(F)(F)F)cc1F)N(Cc1cccc(-c2ccc3ncnc(NC4CC4)c3c2)c1)C1CC1 [Example 177, N-cyclopropyl-N-[3-(4-cyclopropylamino-quinazolin-6-yl)-benzyl]-2-fluoro-4-trifluoromethyl-benzamide]",97%

# The next lines start with the values.
row,inhibition at 10 µM,SMILES
1,90%,"O=C(c1ccc(C(F)(F)F)cc1F)N(Cc1cccc(-c2cc(F)c3ncnc(NC4CC4)c3c2)c1)C1CC1 [Example 738, N-cyclopropyl-N-(3-(4-(cyclopropylamino)-8-fluoroquinazolin-6-yl)benzyl)-2-fluoro-4-(trifluoromethyl)benzamide]"
2,55%,"CN(C)CC(=O)N(Cc1cc(-c2ccc3ncnc(NC(C)(C)C)c3c2)ccc1F)C1CC1 [Example 861, N-(5-(4-(tert-butylamino)quinazolin-6-yl)-2-fluorobenzyl)-N-cyclopropyl-2-(dimethylamino)acetamide]"
3,89%,"O=C(c1cccc(F)c1)N(Cc1cc(-c2ccc3ncnc(NC4CC4)c3c2)ccc1Cl)C1CC1 [Example 791, N-(2-chloro-5-(4-(cyclopropylamino)quinazolin-6-yl)benzyl)-N-cyclopropyl-3-fluorobenzamide]"
4,52%,"O=C(c1cc(Cl)cc(Cl)c1)N(Cc1cc(-c2ccc3ncnc(NC4CC4)c3c2)ccc1Cl)C1CC1 [Example 747, 3,5-dichloro-N-(2-chloro-5-(4-(cyclopropylamino)quinazolin-6-yl)benzyl)-N-cyclopropylbenzamide]"
5,74%,"Cc1cc2ncnc(NC3CC3)c2cc1-c1cccc(CN(C2CC2)S(=O)(=O)c2cccs2)c1 [Example 737, N-cyclopropyl-N-(3-(4-(cyclopropylamino)-7-methylquinazolin-6-yl)benzyl)thiophene-2-sulfonamide]"
6,65%,"O=C(c1ccccc1C(F)(F)F)N(Cc1cc(-c2ccc3ncnc(NC4CC4)c3c2)ccn1)C1CC1 [Example 749, N-cyclopropyl-N-((4-(4-(cyclopropylamino)quinazolin-6-yl)pyridin-2-yl)methyl)-2-(trifluoromethyl)benzamide]"
7,72%,"O=C1CCC(=O)N1Cc1ccc(F)c(-c2ccc3ncnc(NC4CC4)c3c2)c1 [Example 895, 1-(3-(4-(cyclopropylamino)quinazolin-6-yl)-4-fluorobenzyl)pyrrolidine-2,5-dione]"
8,88%,"Cc1cc2ncnc(NC3CC3)c2cc1-c1cccc(CN(C(=O)c2c(F)c(F)c(F)c(F)c2F)C2CC2)c1 [Example 768, N-cyclopropyl-N-(3-(4-(cyclopropylamino)-7-methylquinazolin-6-yl)benzyl)-2,3,4,5,6-pentafluorobenzamide]"
9,65%,"NC1(C(=O)NCc2cccc(-c3ccc4ncnc(NC5CC5)c4c3)c2)CC1 [Example 869, 1-amino-N-(3-(4-(cyclopropylamino)quinazolin-6-yl)benzyl)cyclopropane carboxamide dihydrochloride]"
10,78%,"CC(=O)N(Cc1ccc(F)c(-c2ccc3ncnc(NC4CC4)c3c2)c1)C1CC1 [Example 896, N-cyclopropyl-N-(3-(4-(cyclopropylamino)quinazolin-6-yl)-4-fluorobenzyl)acetamide]"
